From ChEMBL document CHEMBL1201862, “PubChem BioAssay data set” (2004)
Values joined by “and” are separate entries in the source; they are usually repeats but may differ in a detail not shown here. Equal entries are not always repeated.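 Briefly, cells in 96-well plates were exposed to five compound concentrations for 48 h, and endpoints were estimated by linear interpolation. Here, GI50 denotes the concentration required for 50% inhibition of growth.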 Active and inactive are the calls of the source. Cut-off read from the data, not from the text of the source: active = GI50 up to about 1.1 µM and inactive = higher.

What was measured:
Experiment in all cases: NCI anticancer screen, dose series, 48 h
NCI-H460 = system: NCI-H460
HCT-116 = system: HCT-116
HT-29 = system: HT-29
SF-268 = system: SF-268
OVCAR-3 = system: OVCAR-3
KM12 = system: KM12
UO-31 = system: UO-31
CAKI-1 = system: CAKI-1
SNB-75 = system: SNB-75
NCI-H226 = system: NCI-H226
SNB-19 = system: SNB-19
M14 = system: M14
SK-MEL-5 = system: SK-MEL-5
UACC-257 = system: UACC-257

Measured: GI50

CC1=C2C(=O)O[C@@H](c3ccoc3)[C@]2(C)CCC1 [FRAXINELLONE]
inactive: NCI-H460 > 100 µM | HCT-116 > 100 µM | HT-29 > 100 µM | SF-268 > 100 µM | OVCAR-3 > 100 µM | KM12 > 100 µM | UO-31 > 100 µM | CAKI-1 > 100 µM | SNB-75 77.1 µM | NCI-H226 > 100 µM | SNB-19 > 100 µM | M14 > 100 µM | SK-MEL-5 > 100 µM | UACC-257 > 100 µM

Cc1c2c(c(C)c3c1[nH]c1ccccc13)CN(C)CC2
inactive: NCI-H460 16.5 µM | HCT-116 16 µM | HT-29 16.7 µM | SF-268 20.3 µM | OVCAR-3 18.7 µM | KM12 16.6 µM | UO-31 19.5 µM | CAKI-1 13.2 µM | SNB-75 13.5 µM | NCI-H226 19.1 µM | SNB-19 27.4 µM | M14 15.1 µM | SK-MEL-5 13.3 µM | UACC-257 17.2 µM

c1ccc(C2Nc3ccccc3C3OCCCC23)cc1 (stereo not drawn)
inactive: NCI-H460 > 10 µM | HCT-116 17.6 µM | HT-29 > 10 µM | SF-268 25.6 µM | KM12 25.1 µM | UO-31 27 µM | CAKI-1 2.47 µM | NCI-H226 14.8 µM | SNB-19 31.3 µM | SK-MEL-5 5.06 µM | UACC-257 30.9 µM

OC1c2ccccc2C2(O)C1C(c1ccccc1)C(c1ccccc1)C2(O)c1ccccc1 (stereo not drawn)
inactive: NCI-H460 4.56 µM | HT-29 9.86 µM | SF-268 6.79 µM | OVCAR-3 4.88 µM | KM12 10.6 µM | UO-31 13.4 µM | CAKI-1 15.5 µM | SNB-75 12.1 µM | SNB-19 23.5 µM | M14 13.7 µM | SK-MEL-5 7.13 µM | UACC-257 14.3 µM

Cc1cc(C)cc(NC(N)=S)c1
inactive: NCI-H460 > 100 µM | HCT-116 35.5 µM | HT-29 40.9 µM | SF-268 53.7 µM | OVCAR-3 > 100 µM | KM12 > 100 µM | UO-31 > 100 µM | CAKI-1 > 100 µM | SNB-75 > 100 µM | NCI-H226 > 100 µM | SNB-19 > 100 µM | M14 > 100 µM | SK-MEL-5 > 100 µM | UACC-257 36.4 µM

CCOC(=O)CCC1(C(=O)OC)CCCC1=O (stereo not drawn)
inactive: NCI-H460 > 100 µM | HCT-116 > 100 µM | HT-29 > 100 µM | SF-268 > 100 µM | OVCAR-3 > 100 µM | KM12 > 100 µM | UO-31 > 100 µM | SNB-75 > 100 µM | SNB-19 > 100 µM | SK-MEL-5 > 100 µM | UACC-257 > 100 µM

CC(C)(O)[C@@H]1CC[C@@]2(C)CCC[C@H](O)[C@H]2C1
inactive: NCI-H460 > 100 µM | HCT-116 > 100 µM | HT-29 > 100 µM | SF-268 > 100 µM | OVCAR-3 > 100 µM | KM12 > 100 µM | UO-31 > 100 µM | CAKI-1 > 100 µM | SNB-75 > 100 µM | NCI-H226 > 100 µM | SNB-19 > 100 µM | M14 > 100 µM | SK-MEL-5 > 100 µM | UACC-257 > 100 µM

COc1ccc(N2C(=O)C3c4[nH]c5ccccc5c4C4CCCCCCC4C3C2=O)cc1 (stereo not drawn)
inactive: NCI-H460 7.18 µM | HCT-116 3.85 µM | HT-29 23 µM | SF-268 12.7 µM | OVCAR-3 5.93 µM | KM12 > 51.2 µM | UO-31 17.4 µM | CAKI-1 17 µM | SNB-75 11.9 µM | NCI-H226 12.4 µM | SNB-19 10.2 µM | M14 11.9 µM | SK-MEL-5 23.8 µM | UACC-257 38.9 µM

O=S(=O)(O)c1cc(O)c2c(O)c(/N=N/c3ccc(/C=C/c4ccc(/N=N/c5c(S(=O)(=O)O)cc6cc(S(=O)(=O)O)cc(O)c6c5O)cc4S(=O)(=O)O)c(S(=O)(=O)O)c3)c(S(=O)(=O)O)cc2c1
inactive: NCI-H460 > 100 µM | HCT-116 > 100 µM | HT-29 > 100 µM | SF-268 > 100 µM | OVCAR-3 > 100 µM | KM12 32.5 µM | UO-31 > 100 µM | CAKI-1 > 100 µM | SNB-75 > 100 µM | NCI-H226 > 100 µM | SNB-19 > 100 µM | M14 > 100 µM | SK-MEL-5 > 100 µM | UACC-257 > 100 µM

CCOC(=O)C1N(S(=O)(=O)c2ccc(C)cc2)CCC12C(c1ccc(OC)cc1)NC1CCCCC12 (stereo not drawn)
inactive: NCI-H460 > 100 µM | HCT-116 > 100 µM | HT-29 > 100 µM | SF-268 > 100 µM | OVCAR-3 > 100 µM | KM12 > 100 µM | UO-31 > 100 µM | CAKI-1 > 100 µM | SNB-75 28.9 µM | NCI-H226 > 100 µM | SNB-19 > 100 µM | M14 > 100 µM | SK-MEL-5 > 100 µM | UACC-257 > 100 µM

CCC(C)NC1=C(NC(C)=O)C(=O)c2ccccc2C1=O (stereo not drawn)
inactive: NCI-H460 > 75 µM | HCT-116 > 75 µM | HT-29 54.1 µM | SF-268 > 75 µM | OVCAR-3 40.6 µM | KM12 > 75 µM | UO-31 > 75 µM | CAKI-1 > 75 µM | SNB-75 > 75 µM | NCI-H226 > 75 µM | SNB-19 > 75 µM | M14 > 75 µM | SK-MEL-5 > 75 µM | UACC-257 > 75 µM

C/C(=N\OCC(O)CNC(C)C)c1ccc2c(c1)NC(=O)CS2 (stereo not drawn)
inactive: NCI-H460 > 100 µM | HCT-116 > 100 µM | HT-29 > 100 µM | SF-268 > 100 µM | OVCAR-3 > 100 µM | KM12 > 100 µM | UO-31 91.2 µM | SNB-75 50.6 µM | NCI-H226 > 100 µM | SNB-19 > 100 µM | M14 > 100 µM | SK-MEL-5 > 100 µM | UACC-257 > 100 µM

O=C1c2ccccc2-c2c3c(cc4ccnc1c24)OCO3 [LIRIODENINE]
inactive: NCI-H460 3.59 µM and 3.34 µM | HCT-116 3.29 µM and 3.17 µM | HT-29 4.95 µM and 4.06 µM | SF-268 6.14 µM and 6.03 µM | OVCAR-3 9.25 µM and 10.5 µM | KM12 6.44 µM and 6.5 µM | UO-31 4.94 µM and 3.42 µM | CAKI-1 3.63 µM and 3.77 µM | SNB-75 4.18 µM and 6 µM | NCI-H226 4.69 µM and 5.27 µM | SNB-19 5.68 µM and 8 µM | M14 7.53 µM and 6.71 µM | SK-MEL-5 2.84 µM

CC(C)(c1ccccc1)c1ccc(Oc2ccc(C#N)c(C#N)c2)cc1
inactive: NCI-H460 > 10 µM | HCT-116 36.6 µM | HT-29 > 10 µM | SF-268 43.5 µM | OVCAR-3 > 10 µM | KM12 > 10 µM | UO-31 4.48 µM | CAKI-1 > 10 µM | SNB-75 > 10 µM | NCI-H226 > 10 µM | SNB-19 34.6 µM | M14 71.8 µM | SK-MEL-5 20.7 µM | UACC-257 > 10 µM

Cc1cn(Cc2ccccc2CCO)c(=S)[nH]c1=O
inactive: NCI-H460 > 100 µM | HT-29 > 100 µM | SF-268 > 100 µM | OVCAR-3 > 100 µM | KM12 > 100 µM | UO-31 > 100 µM | CAKI-1 > 100 µM | SNB-75 > 100 µM | NCI-H226 34.8 µM | SNB-19 > 100 µM | M14 > 100 µM | SK-MEL-5 > 100 µM | UACC-257 > 100 µM

O=C(O)CCSC(=O)Nc1cccc(F)c1
inactive: NCI-H460 > 100 µM | HT-29 > 100 µM | SF-268 24.3 µM | OVCAR-3 40.6 µM | KM12 > 100 µM | UO-31 > 100 µM | NCI-H226 > 100 µM | SNB-19 > 100 µM | M14 18.3 µM | UACC-257 > 100 µM

Sc1nnc(C(c2ccccc2)c2ccccc2)[nH]1
inactive: NCI-H460 > 100 µM | HCT-116 > 100 µM | HT-29 > 100 µM | SF-268 > 100 µM | OVCAR-3 > 100 µM | KM12 > 100 µM | UO-31 > 100 µM | NCI-H226 > 100 µM | SNB-19 > 100 µM | SK-MEL-5 > 100 µM | UACC-257 > 100 µM

CCOC(=O)/C(=C/c1ccc(C(F)(F)F)cc1)N(CC)CC
inactive: NCI-H460 > 100 µM | HCT-116 40 µM | HT-29 > 100 µM | SF-268 72.3 µM | KM12 44.4 µM | UO-31 46.1 µM | CAKI-1 58.6 µM | SNB-75 > 100 µM | NCI-H226 48.4 µM | M14 > 100 µM | SK-MEL-5 32.7 µM | UACC-257 66.8 µM

COC(=O)[C@]1(C)CCC[C@]2(C)C3CC4OOC3(C=C4C(C)C)CCC21 (stereo partly drawn)
inactive: NCI-H460 12.4 µM | HCT-116 15.7 µM | HT-29 14.7 µM | SF-268 15.4 µM | OVCAR-3 31.8 µM | KM12 17.4 µM | UO-31 15.2 µM | CAKI-1 21.9 µM | NCI-H226 19.6 µM | SNB-19 17.4 µM | M14 15.5 µM | SK-MEL-5 16.1 µM | UACC-257 17.3 µM

COC(=O)C1CC/C(=N\c2cccc(C(F)(F)F)c2)N1 (stereo not drawn)
inactive: NCI-H460 > 100 µM | HCT-116 > 100 µM | HT-29 > 100 µM | SF-268 > 100 µM | OVCAR-3 > 100 µM | KM12 > 100 µM | UO-31 > 100 µM | CAKI-1 > 100 µM | SNB-75 > 100 µM | NCI-H226 > 100 µM | SNB-19 > 100 µM | M14 > 100 µM | UACC-257 > 100 µM
